According to paper PMC5131266 (Scientific Reports, 2016):

Columns and labels:
MPER-PDGFR = assay: Cell-lysate ELISA, MPER-PDGFR; assay type: binding, HIV-1; conditions: 293T cell lysates, 20 nM IgG or Fab, normalized to 20 nM 17/9 IgG
HIV-1 = conditions: cited from earlier work
[1] = system: simian immunodeficiency virus-HIV chimera; conditions: rhesus macaques; cited from earlier work
Description: (§1) The 10E8 antibody achieves potent and broad HIV-1 neutralization by targeting the membrane-proximal external region of gp41 (MPER)[1][2]. […] The exceptionally high degree of conservation of the MPER sequence[4][5] justifies immunotherapeutic approaches based on the 10E8 antibody.

[2] = system: SIVs that infect chimpanzees and gorillas; conditions: cited from earlier work
Description: as §1

MPER-TM1 = assay: Cell-lysate ELISA, MPER-TM1; assay type: binding, HIV-1; conditions: 293T cell lysates, 20 nM IgG or Fab, normalized to 20 nM 17/9 IgG
[3] = biological target: HIV-1 Env of JRCSF on pseudovirus particles (HIV-1 group M subtype B, isolate JRCSF, UniProt P20871); assay: far-Western, overlay or dot blot; dot blot: decreasing amounts of PsV spotted on nitrocellulose, probed with Fab (0.2 ug/ml) in 5% milk in PBS, 1 h, room temperature; conditions: one partner purified

## 10E8 IgG: broadly neutralizing anti-HIV-1 gp41 MPER antibody 10E8, IgG
MPER-PDGFR
  binding to MPER-PDGFR: poor ligand
HIV-1
  mean IC50: below 1 μg/mL
[1]
  protection against infection: complete protection
[2]
  neutralization potency: nanomolar potency
MPER-TM1
  binding to MPER-TM1: bind tightly

## 10E8 WT Fab: recombinant unmodified Fab of anti-HIV-1 gp41 MPER antibody 10E8
MPER-PDGFR
  binding to MPER-PDGFR: poor ligand
MPER-TM1
  binding to MPER-TM1: comparable degree of binding

B1: 10E8 Fab (Fab, V domains shown)
VH: EVQLVESGGGLVKPGGSLRLSCSASGFDFDNAWMTWVRQPPGKGLEWVGRITGPGEGWSVDYAAPVEGRFTISRLNSINFLYLEMNNLRMEDSGLYFCARTGKYYDFWSGYPPGEEYFQDWGRGTLVTVSS
VL: SYELTQETGVSVALGRTVTITCRGDSLRSHYASWYQKKPGQAPILLFYGKNNRPSGVPDRFSGSASGNRASLTISGAQAEDDAEYYCSSRDKSGSRLSVFGGGTKLTVL
notes: also called Fab 10E8; WT
[3]
  binding result: binds
